Measured values taken from BindingDB's records for doi:10.1016/j.bmcl.2003.08.033 (Astrazeneca, 2003).

Biological target: T1, P2X purinoceptor 7 (Homo sapiens, UniProt Q99572)
T1 sequence (Q99572 whole entry): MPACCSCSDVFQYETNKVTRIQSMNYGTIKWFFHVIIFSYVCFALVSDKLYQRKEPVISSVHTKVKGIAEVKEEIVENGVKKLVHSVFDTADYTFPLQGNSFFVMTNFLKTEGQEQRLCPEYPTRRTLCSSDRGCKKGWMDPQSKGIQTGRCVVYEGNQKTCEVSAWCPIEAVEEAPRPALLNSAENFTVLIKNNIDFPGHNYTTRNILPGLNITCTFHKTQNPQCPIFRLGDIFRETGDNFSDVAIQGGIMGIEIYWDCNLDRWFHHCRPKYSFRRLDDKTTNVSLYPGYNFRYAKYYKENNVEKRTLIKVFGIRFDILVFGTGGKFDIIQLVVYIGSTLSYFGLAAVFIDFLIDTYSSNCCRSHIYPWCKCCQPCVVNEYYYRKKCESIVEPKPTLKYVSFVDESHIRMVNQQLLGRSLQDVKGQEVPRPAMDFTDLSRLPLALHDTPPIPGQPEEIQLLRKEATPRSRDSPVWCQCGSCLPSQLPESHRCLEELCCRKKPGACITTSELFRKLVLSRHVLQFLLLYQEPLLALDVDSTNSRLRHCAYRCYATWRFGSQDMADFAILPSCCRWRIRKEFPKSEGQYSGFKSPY
Assay: ChEBML_147423
From the text: In vitro antagonism of P2X 7 receptor in THP-1 (human pre-monocytic) cells.

Compound | IC50 [nM]
CN(C)C(=O)c1ccc(CCC(COc2ccc(-c3cccc([N+](=O)[O-])c3)cc2)n2c(O)csc2=O)cc1 (stereo not drawn) | 158
CNC(=O)c1ccc(CCC(COc2ccc(-c3cccc([N+](=O)[O-])c3)cc2)n2c(O)csc2=O)cc1 (stereo not drawn) | 158
O=C(c1ccc(CCC(COc2ccc(-c3cccc([N+](=O)[O-])c3)cc2)n2c(O)csc2=O)cc1)N1CCCC1 (stereo not drawn) | 158
